Measured values taken from patent US20110294873A1, “Gene Transfer Vectors Comprising At Least One Isolated DNA Molecule Having Insulator Or Boundary Properties And Methods To Identify The Same” (UNIVERSITÉ DE LAUSANNE, priority 2008, published 2011).
“Also recorded” adds a separate entry of the source.

B1: 12×CTCF: 12 copies of consensus CTCF binding sites with random spacers, 472 bp (nucleic acid)
DNA: GCGATGCCGCCCCCTGGTGGCCAGTAATCGCAAGGCTAAGTAATCACTGCCCCCTGGTGGCCGCCAGTCTGATACGCGTTTTACAACCGCCCCCTGGTGGCCGTGGGAGACATCTAGTGCACGAGAGTGCCCCCTGGTGGCCAAACCGTAGCCTAGGCATATTGTACTGCCCCCTGGTGGCCGGCAATATGGCTAGCGATGACTCGGCGCCCCCTGGTGGCCACTACGTTCTAGTGGCGATGCCGCCCCCTGGTGGCCAGTAATCGCAAGGCTAAGTAATCACTGCCCCCTGGTGGCCGCCAGTCTGATACGCGTTTTACAACCGCCCCCTGGTGGCCGTGGGAGACATCTAGTGCACGAGAGTGCCCCCTGGTGGCCAAACCGTAGCCTAGGCATATTGTACTGCCCCCTGGTGGCCGGCAATATGGCTAGCGATGACTCGGCGCCCCCTGGTGGCCACTACGTTCTAGTG
modifications: Consensus binding sites for CTCF (12copies)
B2: CTCF cons: 6 repeats of the consensus CTCF binding site separated by random linkers (nucleic acid)
DNA: GCGATGCCGCCCCCTGGTGGCCAGTAATCGCAAGGCTAAGTAATCACTGCCCCCTGGTGGCCGCCAGTCTGATACGCGTTTTACAACCGCCCCCTGGTGGCCGTGGGAGACATCTAGTGCACGAGAGTGCCCCCTGGTGGCCAAACCGTAGCCTAGGCATATTGTACTGCCCCCTGGTGGCCGGCAATATGGCTAGCGATGACTCGGCGCCCCCTGGTGGCCACTACGTTCTAGTG
modifications: CTCF consensus binding sites

Columns and labels:
Assay type in all cases: cell-based, human
[1] = system: telomeric transgenes (GFP, DsRed) in HeLa cells; assay: Telomeric gene silencing quantitative assay (GFP/DsRed reporters, cytofluorometry); details: for transgene expression at telomeric positions: HeLa telomeric clones, agent in culture medium (TSA 1 μM 48 h, NaB 1 mM one week, 5azadC 3 μM 48 h, BrdU 50 μM one week)
Procedure: The minimal CMV promoter and EGFP and DsRed coding sequences (Clontech) were PCR amplified and cloned in both orientations in pBS-SK2 containing telomeric repeats, kindly provided by J. Baur (2). Puromycin resistance gene expressed from the CAG promoter was inserted upstream of DsRed, in a telomere-distal position. Four Gal4 binding site were introduced between EGFP and DsRed expression cassettes at AscI and BamHI restriction sites, yielding pGE1min-Gal and pGE2 min-Gal. Control plasmids were generated by deletion of the telomeric repeats. Plasmids encoding the Gal DNA binding domain alone (pCD-Gal-DBD), or fused to the CTF1 Proline rich (pCMV-Gal-Pro) or to the VP16 (pCMV-Gal-VP16) transcriptional activation domains were as described previously (31). Plasmids encoding Gal-CTF1 fusion mutations were previously described by Alevizopoulos et al. (1995). Plasmids used to generate stable populations expressing Gal4 derivatives were obtained by cloning Gal-fusion genes or the BFP gene in an expression vector carrying the MAR 1-68 and the SV40 promoter (15).
HeLa cells (Clontech) were cultivated at 37° C. and 5% CO2 in DMEM-F12 with 10% fetal bovine serum (Gibco). Histone deacetylation or DNA methylation studies were performed by supplementing the cell culture medium with either 1 μM of Trichostatin A (TSA, Wako) for 48 h, 1 mM of Sodium butyrate (Sigma) for one week, 3 μM of 5-aza-2′-deoxycytidine (5azadC, Sigma) for 48 h, or 50 μM of Bromo-deoxyuridine (BrdU, Applichem) for one week. Transfections were performed using the Fugene 6 transfection reagent following instructions from the manufacturer (Roche). Stable clones were obtained by transfection of linearized plasmids pGEmin-Gal, pGE2 min-Gal or their respective controls. Cells were selected with 2 μg/mL of puromycin for three weeks, and all analyses were performed at least two weeks after the end of selection, to allow for the silencing of the telomeric locus. Transient transfections were performed by co-transfection of a Gal-fusion encoding plasmid and a BFP encoding plasmid at a molar ratio of 9:1. Cytofluorometric assays of the fluorescent reporter proteins were performed 48 h later. Stable populations expressing Gal-DBD/Gal-Pro were obtained by co-transfecting the Gal-fusion expression plasmid, a BFP-encoding plasmid, and a Zeocin resistance plasmid at 45:45:10 weight ratio. Zeocin resistant cells displaying high BFP levels were sorted twice, and the amount of zeocin was increased to 1800 μg/mL with increments of 200 μg/mL, to ensure consistent and elevated levels of fusion protein expression. Fluorescence in situ hybridization (FISH) was performed as described previously (12, 15) using two colors labeling of the reporter plasmids and of the telomeric repeats.
In order to analyze both telomere-insulated and non-insulated genes co-integrated at the same telomeric locus, we generated the reporter plasmids shown in FIG. 17A. Reporter vectors consist of the green fluorescent protein (GFP) and red fluorescent protein (DsRed) coding sequences placed on either side of four DNA binding sites for the yeast GAL4 protein. Each reporter gene was placed under the control of a minimal CMV promoter, in an orientation mediating either convergent or divergent directions of transcription. An antibiotic resistance gene was placed adjacent to DsRed, while telomeric (TTAGGG)n repeats were placed next to the GFP expression cassette. […] These constructs were transfected, and antibiotic-resistant cells having stably integrated the transgenes in their genome were selected and sorted into monoclonal populations. […] Fluorescence in situ hybridization (FISH) analysis indicated a telomeric or subtelomeric transgene position for all retained clones (see FIG. 6 in the supplemental material). […]

[2] = system: histones H3, H4, H2A.Z on GFP and DsRed sequences in HeLa clones; assay: Chromatin immunoprecipitation of histone modifications on telomeric transgenes; details: clone B09
Procedure: Antibodies against acetylated H3 (06-599), acetylated H4 (06-866) and trimethylated H3K9 (07-442) were obtained from Upstate biotechnology. Antibody against H2A.Z (ab4174) was purchased from Abcam. HeLa cells were harvested at a confluence of 90% and cross-linked with 1% formaldehyde for 4 min. After lysis of the nuclei, chromatin was sonicated to obtain fragments of ˜1000 pb and digested with BamHI. The chromatin solution was diluted to a volume of 300 μL in a buffer containing 200 mM HEPES, 2M NaCl, 20 mM EDTA, 0.1% NaDoc, 1% Triton X-100, 1 mg/mL BSA. Chromatin fragments were precleared 30 min with 10 μL rProtein A Sepharose (Amersham Biosciences) and supernatants were incubated at 4° C. overnight with 5 μL of antibody. Immunoprecipitated complexes were incubated with 10 μL rProtein A Sepharose and pellets were washed 3 times with IP buffer (20 mM HEPES, 0.2M NaCl, 2 mM EDTA, 0.1% NaDoc, 1% Triton X-100). Immunoprecipitated complexes were eluted in 100 mM Tris/HCl, 1% SDS and cross-links were reversed at 65° C. for 1 hour. Precipitated DNAs were eluted in 50 μL TE.
Quantitative PCR was performed on 7700 Sequence detector (Applied Biosystems) using SYBR Green reagent (Eurogentec). Chromatin immuno-precipitation samples and chromatin input were diluted 10 fold before analysis. […]

[3] = system: Fr-MuLV LTR enhancer acting on GFP gene in HeLa cells; assay: Quantitative double-reporter (BFP/GFP) enhancer-blocking assay, transient transfection; details: HeLa transient, 48 hours, GFP/BFP ratio, compared to full-length cHS4
Text: Panel A is a schematic illustration of the retroviral-mediated integration of a transgene expression cassette into a host cell genome upon viral infection. This cassette contains a transgene under the control of a retroviral LTR and is flanked by a genetic insulator element shielding a cellular gene at the site of integration from LTR-mediated up-regulation. In order to mimic events leading to gene transfer-mediated insertional activation in a plasmid-based assay system (B), plasmid constructs were designed containing a BFP gene under the control of a viral LTR enhancer-promoter and a GFP gene under the control of a minimal CMV promoter (P). Inserting a potent insulator in between the two reporter genes should prevent the expression over-activation of the GFP gene without affecting the BFP expression, as it should shield cellular gene from up-regulation at the site of integration of a viral vector without interfering with transgene expression. In addition, in order to insulate the whole construct itself either from the viral enhancer bi-directional activation in transient transfection (circular form of the plasmid) or from a neighboring cellular enhancer at the site of integration in stable transfection (integrated linearized form of the plasmid), a copy of the cHS4 insulator is inserted at the edge of the reporter gene expression cassettes
The plasmid constructs described in FIG. 26B were obtained as follows. The EGFP gene expressed from a minimal CMV promoter was PCR amplified from a pcDNA3-EGFP plasmid excluding the CMV enhancer. The EBFP gene was PCR amplified from the pEBFP-NI plasmid (Clontech). Both reporters were subcloned in a pBS2-SKP (Stratagene). The Fr-MuLV LTR was inserted upstream from the EBFP gene such that transcription from the LTR is directed towards EBFP, and a copy of the 1.2 kb cHS4 was inserted downstream from the EGFP gene. Insulator sequences were inserted between the Fr-MuLV LTR and the minimal CMV promoter driving GFP expression. The 250 bp cHS4 core was PCR amplified from the full-length cHS4 (GenBank accession number: U78775.2, amplification from position 1 to 250). A series of neutral DNA spacers of various lengths were PCR amplified from the mouse utrophin cDNA (GenBank accession number: BC062163.1, amplifications form position 355 to positions 605 and 1555).
HeLa cells were transfected using FuGENE 6 reagent (Roche Diagnostics) according to the manufacturer's recommendations. Equimolar amounts of the different plasmids were transfected in each experiment (using the pBS2-SKP backbone plasmid as carrier). Circular plasmids were used for transient transfections, while plasmids were linearized before stable transfections. To obtain stable populations, the reporter constructs were co-transfected with a puromycin resistance-encoding plasmid (pPUR, Clontech) with a molar ratio of 10:1 and cells were grown in Dulbecco's modified Eagle medium containing 10% fetal bovine serum and 0.5 μg/mL puromycin (all from GIBCO). Fluorescence analyses were acquired on the FACS Cyan (Dakocytomation) with the settings of 450 V on the SSC channel, 340 V for the GFP and 450 V for the BFP. Data analysis of the double-reporter assay consisted in normalizing the GFP fluorescence to the BFP fluorescence for each cell and averaging these values over the total cell population. FACS analyses were performed 48 hours after transfection for transient expression and after 2 to 3 weeks of selection post-transfection for stable expression. Data processing was performed using the FlowJo software.
Therefore, we designed a two-reporter gene assay whereby the potency of enhancer-blocker insulators can be quantified, and in which polar insulating activities can be distinguished from enhancer inhibition or from global gene silencing effects. […]

Molecule	transgene expression at telomeric positions [1]	enhancer-blocking (insulator) activity [3]	other results
Nc1ncn([C@H]2C[C@H](O)[C@@H](CO)O2)c(=O)n1 [5azadC, 5-aza-2′-deoxycytidine]	little effect on transgene expression		
O=c1[nH]c(=O)n([C@H]2C[C@H](O)[C@@H](CO)O2)cc1Br [BrdU, Bromo-deoxyuridine]	increase in expression of the reporter genes, but to a lesser extent than that noted with TSA		
CCCC(=O)[O-].[Na+] [NaB, Sodium butyrate]	lower unsilencing effects in some clones		telomeric gene expression ([1]; clone D17): little effect on telomeric gene expression
CC(/C=C/C(=O)NO)=C\[C@@H](C)C(=O)c1ccc(N(C)C)cc1 [TSA, Trichostatin A]	strongly increase transgene expression		H3K9Me3 on DsRed and GFP sequences (ChIP) [2]: increase; H3 and H4 acetylation on DsRed and GFP sequences (ChIP) [2]: increase of the acetylation of both DsRed and GFP
CTF1: native transcription factor of the CTF/NF1 family, transiently expressed			reporter gene activation upon transient CTF1 expression ([1]; reporter with seven CTF/NF1 binding sites, internal chromosomal location): commensurate activation occurred for both reporter genes; boundary effect upon transient CTF1 expression ([1]; reporter with seven CTF/NF1 binding sites, telomeric transgenes): boundary effect was observed
One binding site (20 bp element): single CTF/NF1 binding site from adenovirus type II origin of replication, 20 bp (DNA TTGGCAACGTGCCATAAGCA; listed as DNA, chemistry not given here)		responsible for most of the effect	enhancer-blocking (insulator) activity ([3]; listed as single binding site of 20 bp): approximately half of the insulating effect seen with the full-length cHS4
B1		as potent as the complete 1.2 kb cHS4 element; also recorded: comparable to the one of the full length cHS4; also recorded: fully reproduced the insulation effect; also recorded: able to reconstitute the enhancer blocking activity mediated by the full-length 1.2 kb cHS4	
B2		already showed significant activity	enhancer-blocking (insulator) activity ([3]; listed as Consensus binding sites for CTCF): able to show the same activity, with no significant improvement
